Reference: patent publication US20250313533A1, “QUINOLINE CARBOXYLIC ACID ESTER COMPOUND AND PREPARATION METHOD AND USE THEREOF” (priority 2019, published 2025)

Columns and labels:
[1] = tested on: soft rot in Chinese cabbages; assay: whole plant or invertebrate; settings: 48 h, read-out: efficacy against soft rot in Chinese cabbages
[2] = tested on: pathogenic bacteria causing black rot in Chinese cabbages; assay: In vitro bactericidal activity, black rot in Chinese cabbages; assay type: cell-based, xanthomonas; settings: Xanthomonas, read-out: inhibitory rate; for inhibition at 1 ppm: dosage 1 ppm; for inhibition at 5 ppm: dosage 5 ppm
[3] = tested on: indoor potted cucumber seedlings; assay: Effect of improving growth and development of crops; assay type: in vivo; parameters: Rate of growth rate increase (%): concentration or dose not given beside the values; settings: versus blank control; for Rate of chlorophyll content increase (%) / Rate of leaf area increase (%): 14 days after application; for Rate of growth rate increase (%): plant height 14 days after application; for Rate of leaf area increase (%): second leaf
Description: Taking indoor potted cucumber seedlings as an example, the influence of the compound disclosed herein on growth rate of plant height, chlorophyll content, leaf area, etc. of crops was mainly evaluated.
The plant heights of plants before application and 14 days after the application were measured.
The growth rates were calculated according to formula (1)
The rates of the growth rate increase (%) were calculated according to formula (2)
The longitudinal and transverse diameters (i.e., leaf length and leaf width, respectively, wherein the leaf length is the distance from the base to the tip of a leaf, and leaf width is the measured value of the upper shoulder width of the leaf) of the second leaf of plants before application and 14 days after the application were measured.
The leaf areas were calculated according to formula (3)
The leaf area increases were calculated according to formula (4)
The rates of the leaf area increases were calculated according to formula (5)
The chlorophyll contents of leaves were measured by using a chlorophyll measuring instrument (model: SPAD-520 Plus).
The chlorophyll content increases were calculated according to formula (6)
The rates of the chlorophyll content increases were calculated according to formula (7)

[4] = tested on: pathogenic bacteria causing bacterial angular leaf spot in cucumbers; assay: In vitro bactericidal activity, bacterial angular leaf spot in cucumbers; assay type: cell-based, pseudomonas; settings: read-out: inhibitory rate; for inhibition at 1 ppm: dosage 1 ppm; for inhibition at 5 ppm: dosage 5 ppm
cucumber seedlings = assay: Safety for plant growth after application; assay type: in vivo; settings: dosage 200 ppm
Procedure, shortened: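 Using pot-grown cucumber seedlings indoors, we recorded plant height growth rate together with chlorophyll content and leaf area following compound application.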

[5] = tested on: bacterial wilt in tobacco; assay: whole plant or invertebrate; settings: Nicotiana tabacum, read-out: efficacy against bacterial wilt in tobacco
[6] = tested on: stem rot in sweet potatoes; assay: whole plant or invertebrate; settings: read-out: efficacy against stem rot in sweet potatoes
[7] = tested on: pathogenic bacteria causing fire blight in pears; assay: In vitro bactericidal activity, fire blight in pears; assay type: cell-based, erwinia; settings: Erwinia, read-out: inhibitory rate; for inhibition at 1 ppm: dosage 1 ppm; for inhibition at 5 ppm: dosage 5 ppm
bacterial blight in rice = assay: whole plant or invertebrate; settings: Oryza sativa, read-out: efficacy against bacterial blight in rice
[8] = tested on: pathogenic bacteria causing stem rot in sweet potatoes; assay: In vitro bactericidal activity, stem rot in sweet potatoes; assay type: cell-based, dikia; settings: read-out: inhibitory rate; for inhibition at 1 ppm: dosage 1 ppm; for inhibition at 5 ppm: dosage 5 ppm
[9] = tested on: pathogenic bacteria causing bacterial blight in rice; assay: whole plant or invertebrate; assay type: cell-based, xanthomonas; settings: read-out: inhibitory rate
[10] = tested on: pathogenic bacteria causing bacterial wilt in tobacco; assay: whole plant or invertebrate; assay type: cell-based, ralstonia; settings: read-out: inhibitory rate
[11] = tested on: pathogenic bacteria causing bacterial wilt in cassava; assay: organism not typed; assay type: cell-based; settings: read-out: inhibitory rate
black shank in potatoes = assay: Living crops in vivo protective activity, potatoes (root irrigation); settings: Solanum tuberosum, read-out: efficacy against black shank in potatoes; for pest or weed control at 5 ppm: dosage 5 ppm; for pest or weed control at 10 ppm: dosage 10 ppm
Description: Root irrigation was carried out on the potatoes for tests according to the designed concentration of the agents. The dosage for each plant was 200 mL and was kept consistent (also for the control). The black shank bacteria were inoculated on the second day after the application. The results were investigated according to the disease condition.

[12] = tested on: pathogenic bacteria causing black shank in potatoes; assay: In vitro bactericidal activity, black shank in potatoes; assay type: cell-based; settings: read-out: inhibitory rate; for inhibition at 1 ppm: dosage 1 ppm; for inhibition at 5 ppm: dosage 5 ppm
[13] = tested on: fruit blotch in watermelons; assay: whole plant or invertebrate; settings: read-out: efficacy against fruit blotch in watermelons
[14] = tested on: pathogenic bacteria causing fruit blotch in watermelons; assay: In vitro bactericidal activity, fruit blotch in watermelons; assay type: cell-based, acidovorax; settings: read-out: inhibitory rate; for inhibition at 1 ppm: dosage 1 ppm; for inhibition at 5 ppm: dosage 5 ppm

Row | Structure (SMILES) | pest or weed control at 5 ppm [1] | pest or weed control at 10 ppm [1] | inhibition at 1 ppm [2] | inhibition at 5 ppm [2] | Rate of chlorophyll content increase (%) [3] | Rate of growth rate increase (%) [3] | Rate of leaf area increase (%) [3] | inhibition at 1 ppm [4] | inhibition at 5 ppm [4] | safety for plant growth (discoloration, necrosis, wilt, malformation) (cucumber seedlings) | pest or weed control at 5 ppm [5] | pest or weed control at 10 ppm [5] | pest or weed control at 5 ppm [6] | pest or weed control at 10 ppm [6] | inhibition at 1 ppm [7] | inhibition at 5 ppm [7] | pest or weed control at 5 ppm (bacterial blight in rice) | pest or weed control at 10 ppm (bacterial blight in rice) | inhibition at 1 ppm [8] | inhibition at 5 ppm [8] | also measured
1 | CCOc1ccc2c(=O)c(C(=O)OCCOC)cn(C3CC3)c2c1 [Compound 342] | ≥ 90% | ≥ 90% | ≥ 90% | ≥ 90% | 9% | 9% | 11% | ≥ 90% | ≥ 90% | safe for plant growth | ≥ 90% | ≥ 90% | ≥ 90% | ≥ 90% | ≥ 90% | ≥ 90% | ≥ 90% | ≥ 90% | ≥ 90% | ≥ 90% | inhibition at 1 ppm [9]: ≥ 90%; inhibition at 5 ppm [9]: ≥ 90%; inhibition at 1 ppm [10]: ≥ 90%; inhibition at 5 ppm [10]: ≥ 90%; inhibition at 1 ppm [11]: ≥ 90%; inhibition at 5 ppm [11]: ≥ 90%; pest or weed control at 5 ppm (black shank in potatoes): ≥ 90%; pest or weed control at 10 ppm (black shank in potatoes): ≥ 90%; inhibition at 1 ppm [12]: ≥ 90%; inhibition at 5 ppm [12]: ≥ 90%; pest or weed control at 5 ppm [13]: ≥ 90%; pest or weed control at 10 ppm [13]: ≥ 90%; inhibition at 1 ppm [14]: ≥ 90%; inhibition at 5 ppm [14]: ≥ 90%
2 | CCSc1cc2c(cc1F)c(=O)c(C(=O)OCCOC)cn2C1CC1 [Compound 382] | ≥ 90% | ≥ 90% | ≥ 90% | ≥ 90% | 13% | 10% | 10% | ≥ 90% | ≥ 90% | safe for plant growth | ≥ 90% | ≥ 90% | ≥ 90% | ≥ 90% | ≥ 90% | ≥ 90% | ≥ 90% | ≥ 90% | ≥ 90% | ≥ 90% | inhibition at 1 ppm [9]: ≥ 90%; inhibition at 5 ppm [9]: ≥ 90%; inhibition at 1 ppm [10]: ≥ 90%; inhibition at 5 ppm [10]: ≥ 90%; inhibition at 1 ppm [11]: ≥ 90%; inhibition at 5 ppm [11]: ≥ 90%; pest or weed control at 5 ppm (black shank in potatoes): ≥ 90%; pest or weed control at 10 ppm (black shank in potatoes): ≥ 90%; inhibition at 1 ppm [12]: ≥ 90%; inhibition at 5 ppm [12]: ≥ 90%; pest or weed control at 5 ppm [13]: ≥ 90%; pest or weed control at 10 ppm [13]: ≥ 90%; inhibition at 1 ppm [14]: ≥ 90%; inhibition at 5 ppm [14]: ≥ 90%
3 | O=C(OCCO)c1cn(C2CC2)c2cc(Cl)c(F)cc2c1=O [Compound 151, 2-hydroxyethyl-7-chloro-1-cyclopropyl-6-fluoro-4-oxo-1,4-dihydroquinoline-3-carboxylate] | ≥ 90% | ≥ 90% | ≥ 90% | ≥ 90% | 15% | 12% | 16% | ≥ 90% | ≥ 90% | safe for plant growth | ≥ 90% | ≥ 90% | ≥ 90% | ≥ 90% | ≥ 90% | ≥ 90% | ≥ 90% | ≥ 90% | ≥ 90% | ≥ 90% | inhibition at 1 ppm [9]: ≥ 90%; inhibition at 5 ppm [9]: ≥ 90%; inhibition at 1 ppm [10]: ≥ 90%; inhibition at 5 ppm [10]: ≥ 90%; inhibition at 1 ppm [11]: ≥ 90%; inhibition at 5 ppm [11]: ≥ 90%; pest or weed control at 5 ppm (black shank in potatoes): ≥ 90%; pest or weed control at 10 ppm (black shank in potatoes): ≥ 90%; inhibition at 1 ppm [12]: ≥ 90%; inhibition at 5 ppm [12]: ≥ 90%; pest or weed control at 5 ppm [13]: ≥ 90%; pest or weed control at 10 ppm [13]: ≥ 90%; inhibition at 1 ppm [14]: ≥ 90%; inhibition at 5 ppm [14]: ≥ 90%
4 | O=C(OCCO)c1cn(C2CC2)c2cc(N3CCCCC3)c(F)cc2c1=O [Compound 431] | ≥ 90% | ≥ 90% | ≥ 90% | ≥ 90% | 15% | 12% | 11% | ≥ 90% | ≥ 90% | safe for plant growth | ≥ 90% | ≥ 90% | ≥ 90% | ≥ 90% | ≥ 90% | ≥ 90% | ≥ 90% | ≥ 90% | ≥ 90% | ≥ 90% | inhibition at 1 ppm [9]: ≥ 90%; inhibition at 5 ppm [9]: ≥ 90%; inhibition at 1 ppm [10]: ≥ 90%; inhibition at 5 ppm [10]: ≥ 90%; inhibition at 1 ppm [11]: ≥ 90%; inhibition at 5 ppm [11]: ≥ 90%; pest or weed control at 5 ppm (black shank in potatoes): ≥ 90%; pest or weed control at 10 ppm (black shank in potatoes): ≥ 90%; inhibition at 1 ppm [12]: ≥ 90%; inhibition at 5 ppm [12]: ≥ 90%; pest or weed control at 5 ppm [13]: ≥ 90%; pest or weed control at 10 ppm [13]: ≥ 90%; inhibition at 1 ppm [14]: ≥ 90%; inhibition at 5 ppm [14]: ≥ 90%
